# Measurements as given in patent US20240269139A1, “COMPOUNDS FOR TARGETED PROTEIN DEGRADATION OF KINASES” (DANA-FARBER CANCER INSTITUTE, INC., priority 2020, published 2024).
# Where “and” joins values, the source holds several entries; their conditions need not be identical. Equal values may be shown once. Read-outs that look alike come from different tables or passages of the source.
# How the values were obtained:
# Type in all cases: cell-based
# [1] = target: T1, protein kinases (human kinome) (Homo sapiens, UniProt Q9UIG0); conditions: BAZ1B (Q9UIG0)
# T1 sequence (Q9UIG0 1-1483): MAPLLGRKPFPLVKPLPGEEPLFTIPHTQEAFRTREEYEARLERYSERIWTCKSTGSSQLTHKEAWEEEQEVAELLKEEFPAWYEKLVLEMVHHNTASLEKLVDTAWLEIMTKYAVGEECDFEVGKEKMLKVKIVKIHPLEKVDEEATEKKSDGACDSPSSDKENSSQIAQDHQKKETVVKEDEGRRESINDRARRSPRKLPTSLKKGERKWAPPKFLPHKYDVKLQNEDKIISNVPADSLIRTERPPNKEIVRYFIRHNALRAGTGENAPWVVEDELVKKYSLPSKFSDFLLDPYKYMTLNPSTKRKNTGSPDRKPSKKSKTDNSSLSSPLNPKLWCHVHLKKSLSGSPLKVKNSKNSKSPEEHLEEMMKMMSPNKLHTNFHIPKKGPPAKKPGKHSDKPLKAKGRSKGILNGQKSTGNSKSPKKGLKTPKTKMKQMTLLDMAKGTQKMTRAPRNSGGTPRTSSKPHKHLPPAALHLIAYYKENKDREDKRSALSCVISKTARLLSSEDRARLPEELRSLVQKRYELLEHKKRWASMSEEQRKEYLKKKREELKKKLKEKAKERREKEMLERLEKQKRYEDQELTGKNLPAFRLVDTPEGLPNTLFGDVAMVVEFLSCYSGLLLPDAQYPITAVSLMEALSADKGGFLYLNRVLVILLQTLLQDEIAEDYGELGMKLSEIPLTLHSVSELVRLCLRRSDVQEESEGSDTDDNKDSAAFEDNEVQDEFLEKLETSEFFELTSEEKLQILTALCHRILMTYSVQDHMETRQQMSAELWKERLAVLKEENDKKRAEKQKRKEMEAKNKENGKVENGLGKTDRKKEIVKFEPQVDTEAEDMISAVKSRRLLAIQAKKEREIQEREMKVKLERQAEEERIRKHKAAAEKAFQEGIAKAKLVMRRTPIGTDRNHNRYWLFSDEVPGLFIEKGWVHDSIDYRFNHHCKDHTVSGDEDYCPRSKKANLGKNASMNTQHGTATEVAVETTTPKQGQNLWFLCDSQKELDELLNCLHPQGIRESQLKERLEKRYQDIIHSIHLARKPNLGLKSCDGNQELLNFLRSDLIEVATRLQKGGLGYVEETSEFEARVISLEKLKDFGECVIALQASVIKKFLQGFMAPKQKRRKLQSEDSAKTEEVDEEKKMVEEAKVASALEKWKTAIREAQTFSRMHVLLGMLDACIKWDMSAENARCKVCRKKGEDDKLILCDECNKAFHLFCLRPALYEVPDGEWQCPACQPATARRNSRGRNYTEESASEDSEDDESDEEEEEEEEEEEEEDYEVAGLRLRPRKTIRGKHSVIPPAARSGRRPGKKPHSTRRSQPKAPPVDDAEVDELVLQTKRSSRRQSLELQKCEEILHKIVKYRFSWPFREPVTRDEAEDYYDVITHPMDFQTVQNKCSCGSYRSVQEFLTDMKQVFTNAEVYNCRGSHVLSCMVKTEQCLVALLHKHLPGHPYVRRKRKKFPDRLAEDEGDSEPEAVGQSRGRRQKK
# [2] = target: protein kinases (human kinome) (Homo sapiens, UniProt Q9NYL2)
# protein kinases (human kinome) (Homo sapiens, UniProt Q9NYL2), sequence (Q9NYL2 whole entry): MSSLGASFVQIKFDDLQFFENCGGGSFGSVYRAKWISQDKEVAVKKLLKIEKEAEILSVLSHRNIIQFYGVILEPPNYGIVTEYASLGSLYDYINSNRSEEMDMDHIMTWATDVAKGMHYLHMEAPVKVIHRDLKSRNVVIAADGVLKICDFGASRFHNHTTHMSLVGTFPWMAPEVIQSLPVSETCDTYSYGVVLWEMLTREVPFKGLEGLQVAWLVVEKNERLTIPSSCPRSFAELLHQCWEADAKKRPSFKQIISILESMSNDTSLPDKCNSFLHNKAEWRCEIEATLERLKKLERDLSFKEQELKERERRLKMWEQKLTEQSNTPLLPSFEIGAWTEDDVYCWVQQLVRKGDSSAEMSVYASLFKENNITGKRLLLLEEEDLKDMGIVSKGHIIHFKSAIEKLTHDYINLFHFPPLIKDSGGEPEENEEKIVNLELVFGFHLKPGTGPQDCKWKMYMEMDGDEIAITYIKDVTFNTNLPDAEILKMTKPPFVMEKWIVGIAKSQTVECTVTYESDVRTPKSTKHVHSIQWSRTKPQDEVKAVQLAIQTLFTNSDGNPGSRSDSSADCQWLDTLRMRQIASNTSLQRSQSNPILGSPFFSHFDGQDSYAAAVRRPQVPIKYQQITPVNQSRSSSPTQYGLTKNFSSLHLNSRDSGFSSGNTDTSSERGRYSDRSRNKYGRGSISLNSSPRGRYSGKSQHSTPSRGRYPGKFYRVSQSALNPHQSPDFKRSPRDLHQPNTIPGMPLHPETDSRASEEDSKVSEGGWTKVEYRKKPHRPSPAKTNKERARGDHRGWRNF
# [3] = target: T2, protein kinases (human kinome) (Homo sapiens, UniProt Q13546)
# T2 sequence (Q13546 1-671): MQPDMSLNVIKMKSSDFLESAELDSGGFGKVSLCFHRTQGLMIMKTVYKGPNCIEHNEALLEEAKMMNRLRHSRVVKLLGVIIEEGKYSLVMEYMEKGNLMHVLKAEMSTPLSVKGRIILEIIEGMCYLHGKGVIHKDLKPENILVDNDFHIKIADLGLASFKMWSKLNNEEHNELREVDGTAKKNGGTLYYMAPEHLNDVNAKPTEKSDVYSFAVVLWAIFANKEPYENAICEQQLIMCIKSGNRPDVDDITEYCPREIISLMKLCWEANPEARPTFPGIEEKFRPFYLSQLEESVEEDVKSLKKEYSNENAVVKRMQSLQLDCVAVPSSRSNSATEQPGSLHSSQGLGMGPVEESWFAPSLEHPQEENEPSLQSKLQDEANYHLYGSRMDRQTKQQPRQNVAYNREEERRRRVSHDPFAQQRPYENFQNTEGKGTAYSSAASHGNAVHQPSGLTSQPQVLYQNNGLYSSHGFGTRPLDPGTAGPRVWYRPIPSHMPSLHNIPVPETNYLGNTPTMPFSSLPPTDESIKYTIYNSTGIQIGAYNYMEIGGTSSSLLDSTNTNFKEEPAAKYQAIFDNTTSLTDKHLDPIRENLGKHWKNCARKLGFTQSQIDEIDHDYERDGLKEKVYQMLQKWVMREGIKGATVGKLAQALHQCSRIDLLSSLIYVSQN
# [4] = target: protein kinases (human kinome) (Homo sapiens, UniProt P54646); conditions: for logFC: PRKAA2 (P54646)
# protein kinases (human kinome) (Homo sapiens, UniProt P54646), sequence (P54646 whole entry): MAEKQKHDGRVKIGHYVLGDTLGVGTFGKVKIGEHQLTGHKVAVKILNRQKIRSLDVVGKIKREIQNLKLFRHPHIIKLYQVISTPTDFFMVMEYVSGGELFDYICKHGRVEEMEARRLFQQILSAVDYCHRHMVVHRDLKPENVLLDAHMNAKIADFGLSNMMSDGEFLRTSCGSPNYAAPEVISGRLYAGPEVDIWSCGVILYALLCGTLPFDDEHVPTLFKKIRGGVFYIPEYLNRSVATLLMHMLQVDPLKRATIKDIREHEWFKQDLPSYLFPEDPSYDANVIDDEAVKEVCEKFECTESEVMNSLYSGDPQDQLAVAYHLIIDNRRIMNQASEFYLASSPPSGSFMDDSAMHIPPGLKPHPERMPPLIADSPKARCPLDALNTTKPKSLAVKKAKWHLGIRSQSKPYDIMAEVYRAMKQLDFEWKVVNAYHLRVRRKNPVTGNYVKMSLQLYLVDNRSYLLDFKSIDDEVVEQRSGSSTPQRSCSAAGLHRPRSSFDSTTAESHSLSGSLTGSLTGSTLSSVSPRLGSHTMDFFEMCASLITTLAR
# [5] = MAP3K20 Q9NYL2; experiment wp168
smiles,measurement,setting,value
CC(=O)c1c(C)c2cnc(Nc3ccc(N4CCN(CCOCCOCCOCCNC(=O)COc5cccc6c5C(=O)N(C5CCC(=O)NC5=O)C6=O)CC4)cn3)nc2n(C2CCCC2)c1=O (centres unmarked) [BSJ.03.123],logFC,[1]; experiment wp084,−0.3532
CN(C)C(=O)c1cc2cnc(Nc3ccc(N4CCN(CCCCNC(=O)COc5cccc6c5C(=O)N(C5CCC(=O)NC5=O)C6=O)CC4)cn3)nc2n1C1CCCC1 (centres unmarked) [BSJ.04.132],logFC,[1]; experiment wp084,−0.3222
"Cc1ccc(NC(=O)c2cccc(C(F)(F)F)c2)cc1N1Cc2cnc(Nc3ccc(N4CCN(Cc5cn(CCCCCOc6cccc7c6C(=O)N(C6CCC(=O)NC6=O)C7=O)nn5)CC4)nc3)nc2N(C)C1=O (centres unmarked) [DB0646, N-(3-(7-((6-(4-((1-(5-((2-(2,6-Dioxopiperidin-3-yl)-1,3-dioxoisoindolin-4-yl)oxy)pentyl)-1H-1,2,3-triazol-4-yl)methyl)piperazin-1-v)pyridin-3-yl)amino)-1-methyl-2-oxo-1,4-dihydropyrimido[4,5-d]pyrimidin-3(2H)-yl)-4-methylphenyl)-3-(trifluoromethyl)benzamide]",logFC MAP3K20 (Q9NYL2),[2]; Experiment wp045,−0.4248
same,logFC MAP3K20 (Q9NYL2),[2]; Experiment wp107,−0.53
same,logFC MAP3K20 (Q9NYL2),"[2]; Experiment wp160, 2 hr",−0.3293
same,logFC MAP3K20,[2]; MAP3K20 Q9NYL2; experiment wp045,−0.4248
same,logFC MAP3K20,[2]; MAP3K20 Q9NYL2; experiment wp107,−0.53
same,logFC MAP3K20,[2]; MAP3K20 Q9NYL2; experiment wp152,−0.6556
same,logFC MAP3K20,"[2]; MAP3K20 Q9NYL2; experiment wp160, 2 hr",−0.3293
same,logFC MAP3K20,"[2]; MAP3K20 Q9NYL2; experiment wp160, 4 hr",−0.6192
same,logFC MAP3K20,"[2]; MAP3K20 Q9NYL2; experiment wp160, 8 hr",−0.9197
same,logFC MAP3K20,[2]; MAP3K20 Q9NYL2; experiment wp160; 4 hr,−0.6192
same,logFC MAP3K20,[2]; MAP3K20 Q9NYL2; experiment wp160; 8 hr,−0.9197
same,logFC MAP3K20,[2]; MAP3K20 Q9NYL2; experiment wp172,−0.3864
same,logFC MAP3K20 (Q9NYL2),[2]; experiment wp152,−0.6556
same,logFC RIPK1 (Q13546),[3]; experiment wp045,−0.7115
same,logFC RIPK1 (Q13546),[3]; experiment wp103,−0.4796
same,logFC RIPK1 (Q13546),[3]; experiment wp105,−0.4233
same,logFC RIPK1 (Q13546),[3]; experiment wp107,−0.5121
same,logFC RIPK1 (Q13546),[3]; experiment wp117,−0.616
same,logFC RIPK1 (Q13546),[3]; experiment wp152,−0.5495
same,logFC RIPK1 (Q13546),"[3]; experiment wp160, 4 hr",−0.3907
same,logFC RIPK1 (Q13546),"[3]; experiment wp160, 8 hr",−0.8745
Cc1ccc(NC(=O)c2cccc(C(F)(F)F)c2)cc1N1Cc2cnc(Nc3ccc(N4CCN(CCCOc5cccc6c5C(=O)N(C5CCC(=O)NC5=O)C6=O)CC4)nc3)nc2N(C)C1=O (centres unmarked) [DB0662],logFC MAP3K20,[2]; [5],−0.737
Cc1ccc(NC(=O)c2cccc(C(F)(F)F)c2)cc1N1Cc2cnc(Nc3ccc(N4CCN(CCCCC(=O)N[C@H](C(=O)N5C[C@H](O)C[C@H]5C(=O)N[C@@H](C)c5ccc(-c6scnc6C)cc5)C(C)(C)C)CC4)nc3)nc2N(C)C1=O [DB1113],logFC MAP3K20,[2]; [5],−1.38
same,logFC RIPK1 (Q13546),[3]; experiment wp168,−1.99
CC(C)(C)c1nc(-c2cccc(NS(=O)(=O)c3c(F)cccc3F)c2F)c(-c2ccnc(NCCOCCNC(=O)CCOCCOCCNc3cccc4c3C(=O)N(C3CCC(=O)NC3=O)C4=O)n2)s1 (centres unmarked) [DD.03.106],logFC MAP3K20 (Q9NYL2),"[2]; Experiment wp147, 2 uM",−0.4079
same,logFC MAP3K20,"[2]; MAP3K20 Q9NYL2; experiment wp147, 2 uM",−0.4079
CC(C)(C)c1nc(-c2cccc(NS(=O)(=O)c3c(F)cccc3F)c2F)c(-c2ccnc(NCCOCCNC(=O)CCOCCOCCNc3cccc4c3CN(C3CCC(=O)NC3=O)C4=O)n2)s1 (centres unmarked) [DD.03.107],logFC,"[1]; experiment wp147, 4 uM",−0.3418
"Cc1ncsc1-c1ccc([C@H](C)NC(=O)[C@@H]2C[C@@H](O)CN2C(=O)[C@@H](NC(=O)CCCCCN2CCN(c3ccc(Nc4ncc5scc(-c6cccc(NS(C)(=O)=O)c6)c5n4)cc3)CC2)C(C)(C)C)cc1 [RSS0680, (2S,4R)-1-((S)-3,3-Dimethyl-2-(6-(4-(4-((7-(3-(methylsulfonamido)phenyl)thieno[3,2-d]pyrimidin-2-yl)amino)phenyl)piperazin-1-yl)hexanamido)butanoyl)-4-hydroxy-N—((S)-1-(4-(4-methylthiazol-5yl)phenyl)ethyl)pyrrolidine-2-carboxamide]",logFC,[1]; experiment wp080,−0.4061
Cc1ccc(C(=O)Nc2ccc(CN3CCN(CCCOCCOCCOCCNC(=O)COc4cccc5c4C(=O)N(C4CCC(=O)NC4=O)C5=O)CC3)c(C(F)(F)F)c2)cc1C#Cc1cnc2cccnn12 (centres unmarked) [SB1.G.187],logFC RIPK1 (Q13546),[3]; Experiment wp172,−0.9666 and −0.9656
same,logFC RIPK1 (Q13546),[3]; experiment wp056,−1.288
same,logFC RIPK1 (Q13546),[3]; experiment wp103,−1.767
same,logFC RIPK1 (Q13546),[3]; experiment wp105,−1.141
same,logFC RIPK1 (Q13546),[3]; experiment wp107,−1.502
CC(C)S(=O)(=O)c1ccccc1Nc1nc(Nc2ccc(N3CCN(CCOCCNC(=O)CNc4cccc5c4C(=O)N(C4CCC(=O)NC4=O)C5=O)CC3)cc2)ncc1Cl (centres unmarked) [SK.3.91],logFC of PRKAA2 (P54646),[4]; Experiment wp172,−0.926
same,logFC,[4]; experiment wp105,−0.9029
same,logFC,[4]; experiment wp172,−0.926
same,logFC of PRKAA2 (P54646),[4]; experiment wp105,−0.9029
Cc1ccc(C(=O)Nc2ccc(CN3CCN(CCOCCOCCNC(=O)CNc4cccc5c4C(=O)N(C4CCC(=O)NC4=O)C5=O)CC3)c(C(F)(F)F)c2)cc1C#Cc1cnc2cccnn12 (centres unmarked) [TL13.150],logFC RIPK1 (Q13546),[3]; experiment wp081,−0.667
NC(=O)c1c(F)cccc1Nc1nc(Nc2ccc(S(=O)(=O)NCCOCCOCCOCCOCCNc3cccc4c3C(=O)N(C3CCC(=O)NC3=O)C4=O)cc2)ncc1Br (centres unmarked) [TMX.02.138],logFC,[4]; experiment wp146,−1.476
same,logFC of PRKAA2 (P54646),[4]; experiment wp146,−1.476
Cc1cc(Nc2ncc(Br)c(Nc3cccc(F)c3C(N)=O)n2)ccc1S(=O)(=O)NCCOCCOCCOCCOCCNc1cccc2c1C(=O)N(C1CCC(=O)NC1=O)C2=O (centres unmarked) [TMX.02.174],logFC,[4]; experiment wp146,−1.826
same,logFC of PRKAA2 (P54646),[4]; experiment wp146,−1.826
